Source: patent US9452220B2, “Coupling compounds of NSAID anti-inflammatory and analgesic drugs and EGFR kinase inhibitors, synthesis methods and applications thereof” (Guangzhou Institutes of Biomedicine and Health, Chinese …, priority 2014, dated 2016)

Tests used:
[1] = system: HCC827 human non-small cell lung cancer cells; experiment: MTT cell activity assay, HCC827 cells; assay type: cell-based; details: 72 hrs with compound, absorption at 570 nm or 490 nm
Method: (§1) H1975/HCC827: human non-small cell lung cancer cells, PBS, MTT, DMEM culture medium, pancreatin, a multichannel pipette, a vortex mixer, a microplate reader, a biosafety cabinet, a 5% CO2 cell culture incubator, a cell counter, a microscope, a thermostatic water bath, and a 96-pore plate.
(§2) 1. H1975/HCC827 cells was cleaned with PBS, digested with pancreatin, centrifuged at room temperature for 5 min at 1000 rpm, re-suspended with an appropriate amount of culture medium, and counted by a cell counting plate. The cells were inoculated to the 96-pore plate by the multichannel pipette at 1000-2000 cells/pore/100 μl, with 6 complex pores for each concentration and totally 6 concentration gradients. The basis of the number of cells: upon final test, OD570 was between 0.2-0.8 (Lambert-Beer's Law).
(§3) 2. The compounds were prepared into […] of mother liquor by using DMSO. 10 μl of mother liquor was added into 90 μl of DMSO, and the mixture was uniformly mixed by the vortex mixer and diluted in turn for 5 times to obtain DMSO stock solution. The stock solution was stored at 4° C. for standby. The stock solution was uniformly mixed again before use and then added into a complete culture medium in 1:500 to serve as working solution, and then the mixture was mixed uniformly by the vortex mixer. The working solution needs to be immediately used after prepared well to avoid precipitation after long-term storage.
(§4) 3. The 96-pore plate was cultured in the cell incubator for 24 hrs, then added with 100 μl of the working solution prepared from the compounds, and continued to be cultured together for 72 hrs.
(§5) 4. The upper-layer culture medium was removed carefully, then 100 μl of culture medium containing MTT (0.5 mg/ml) was added again, and the culture medium was placed in the incubator for 4 hrs. The culture medium was removed completely, then 100 μl of DMSO was added, and the mixture was shocked uniformly. Preparation of MTT: 1.25 g of MTT was added into 250 ml of PBS, and then the mixture was mixed uniformly and stored away from light at 4° C.
(§6) 5. The light absorption value at 570 nm or 490 nm was detected by the microplate reader. EC50 was calculated and an added value curve was drawn by Graphpad.

[2] = system: H1975 human non-small cell lung cancer cells; experiment: MTT cell activity assay, H1975 cells; assay type: cell-based; details: NCI-H1975, 72 hrs with compound, absorption at 570 nm or 490 nm
Method: as §1, §2, §3, §4, §5, §6

EC50 [1]	EC50 [2]	SMILES
0.61 µM	32.9 µM	C#Cc1cccc(Nc2ncnc3cc(OCCOC)c(OCCOC(=O)C4=Cc5cc(Cl)c(C(C)(C)C)cc5OC4C(F)(F)F)cc23)c1 (stereo not shown) [Embodiment 4]
0.63 µM	95.8 µM	C#Cc1cccc(Nc2ncnc3cc(OCCOC(=O)Cc4c(C)n(C(=O)c5ccc(Cl)cc5)c5ccc(OC)cc45)c(OCCOC)cc23)c1 [Embodiment 14, 3-(4-(3-ethynylaniline)-6-(2-methoxyethoxy)quinazoline-7-oxy)ethyl-2-(1-(4-chlorobenzoyl)-5-methoxy-2-methyl-1H-indol-3-ene)acetic acid]
1.14 µM	52.9 µM	C#Cc1cccc(Nc2ncnc3cc(OCCOC(=O)c4ccc(C(=O)Nc5ccc6c(c5)C(C)(C)CCC6(C)C)cc4)c(OCCOC(=O)c4ccc(C(=O)Nc5ccc6c(c5)C(C)(C)CCC6(C)C)cc4)cc23)c1 [Embodiment 24, 2,2′-(4-(3-ethynylaniline)quinazoline-6,7-diene)di(oxy)bis(ethyl-2,1-diene)-bis(4-(5,5,8,8-tetramethyl-5,6,7,8-tetralin-2-alkenylcarbamyl)benzoic acid)]
0.09 µM	27.2 µM	C#Cc1cccc(Nc2ncnc3cc(OCCOC(=O)C(C)c4ccc5cc(OC)ccc5c4)c(OCCOC)cc23)c1 (stereo not shown) [Embodiment 13, 2-(4-(3-ethynylaniline)-6-(2-methoxyethoxy)quinazoline-7-oxy)ethyl-2-(6-methoxylnaphthyl-2-ene)propanoic acid]
1.05 µM	75.6 µM	C#Cc1cccc(Nc2ncnc3cc(OCCOC(=O)C4=Cc5cc(Cl)c(C(C)(C)C)cc5OC4C(F)(F)F)c(OCCOC(=O)C4=Cc5cc(Cl)c(C(C)(C)C)cc5OC4C(F)(F)F)cc23)c1 (stereo not shown) [Embodiment 21, 2,2′-(4-(3-ethynylaniline)quinazoline-6,7-diene)di(oxy)bis(ethyl-2,1-diene)-bis(7-7-tert-butyl-6-chloro-2-(trifluoromethyl)-2H-pyran-3-carboxylic acid)]
1.5 µM		C#Cc1cccc(Nc2ncnc3cc(OCCOC(=O)C(C)c4ccc(C(=O)c5ccccc5)cc4)c(OCCOC(=O)C(C)c4ccc(C(=O)c5ccccc5)cc4)cc23)c1 (stereo not shown) [Embodiment 17, 2,2′-(4-(3-ethynylaniline)quinazoline-6,7-diene)di(oxy)bis(ethyl-2,1-diene)-bis(2-(4-benzoylphenyl)propanoic acid)]
0.28 µM	8.65 µM	C#Cc1cccc(Nc2ncnc3cc(OCCOC(=O)C(C)c4ccc(CC(C)C)cc4)c(OCCOC)cc23)c1 (stereo not shown) [Embodiment 10, 2-(4-(3-ethynylaniline)-6-(2-methoxyethoxy)quinazoline-7-oxy)ethyl-2-(4-isobutylphenyl)propanoic acid]
3.62 µM	55.3 µM	C#Cc1cccc(Nc2ncnc3cc(OCCOC(=O)Cc4c(C)n(C(=O)c5ccc(Cl)cc5)c5ccc(OC)cc45)c(OCCOC(=O)Cc4c(C)n(C(=O)c5ccc(Cl)cc5)c5ccc(OC)cc45)cc23)c1 [Embodiment 22, 2,2′-(4-(3-ethynylaniline)quinazoline-6,7-diene)di(oxy)bis(ethyl-2,1-diene)-bis(2-(1-(4-chlorobenzoyl)-5-methoxy-2-methyl-1H-indol-3-ene)acetic acid)]
	805 µM	C#Cc1cccc(Nc2ncnc3cc(OCCOC(=O)C(C)c4ccc(CC(C)C)cc4)c(OCCOC(=O)C(C)c4ccc(CC(C)C)cc4)cc23)c1 (stereo not shown) [Embodiment 18, 2,2′-(4-(3-ethynylaniline)quinazoline-6,7-diene)di(oxy)bis(ethyl-2,1-diene)-bis(2-(4-isobutylphenyl)propanoic acid)]

SMILES	EC50 [1]	EC50 [2]
C#Cc1cccc(Nc2ncnc3cc(OCCOC)c(OCCOC(=O)c4ccccc4OC(C)=O)cc23)c1 [Embodiment 3, 2-(4-(3-ethynylaniline)-7-(2-methoxyethoxy)quinazoline-6-oxy)ethyl-2-acetoxybenzoic acid]	0.16 µM	12.2 µM
C#Cc1cccc(Nc2ncnc3cc(OCCOC(=O)c4ccccc4OC(C)=O)c(OCCOC)cc23)c1 [Embodiment 11, 2-(4-(3-ethynylaniline)-6-(2-methoxyethoxy)quinazoline-7-oxy)ethyl-2-acetoxyl benzoic acid]	0.13 µM	13.8 µM
C#Cc1cccc(Nc2ncnc3cc(OCCOC(=O)c4ccccc4OC(C)=O)c(OCCOC(=O)c4ccccc4OC(C)=O)cc23)c1 [Embodiment 19, 2,2′-(4-(3-ethynylaniline)quinazoline-6,7-diene)di(oxy)bis(ethyl-2,1-diene)-bis(2-acetoxylbenzoic acid)]	0.2 µM	41.7 µM
